We go through eight compounds from US11634434B2, “Bifunctional alpha-synuclein binding agents and uses thereof” (University of Saskatchewan, priority 2016, dated 2023).

Values joined by “and” are separate entries in the source; they are usually repeats but may differ in a detail not shown here. Equal entries are not always repeated. Where two headings read alike, the source gives them in different places.

Data set [1] relates to male Sprague-Dawley rats with increased alpha-synuclein expression. Nature of the data set: Forced swim test in ASIA-treated rats. It counts as in vivo, rat. Particulars: ASIA + compound 3 mg/kg; for success in forced swim test / vigor in forced swim test: last three minutes of the test. The protocol:
(§1) male Sprague-Dawley rats are used (200 g-300 g). All animals are handled ethically following approved protocols. For the first round of studies, rats are divided into five treatment groups:
(§2) Rats are subjected to 7-day chronic injection of 3 mg/kg of each test compound, and a forced swim test is conducted after the seventh day to measure motor deficits. […] For a second round of studies, rats are divided into four treatment groups, and the same experiments were repeated:
The forced swim test is carried out by immersing the rat in water that is sufficiently deep to force the rat to swim. The forced swim test is scored based on the following criteria:
Vigor and success are measures of motor function. Immobility is thought to be a measure of depression.^59 Based on videos of the forced swim test, the amount of time that each rat was motionless was calculated as a form of scoring depression for each treatment. Statistical analysis was carried out using an ordinary one-way ANOVA and Tukey multiple comparisons test.

The test system of data set [2] is alpha-synuclein-GFP aggregation in yeast strain 2AS. The class given is cell-based. Conditions: 1 micromolar compound, 5 mM galactose; for AS-GFP foci / fluorescence pattern: up to 12 hours. The protocol: (§3) Third, the drugs were assayed in a yeast model of Parkinson's Disease, which expresses an alpha-synuclein-Green Fluorescent Protein (AS-GFP) construct under the control of a galactose promoter.
For Analysis of AS-GFP distribution, the 2AS strain was grown overnight in drop-out media. After normalization of culture density, galactose was administered to a final concentration of 5 mM. […] For the yeast recovery assay, yeast cells were obtained after 6 hours induction with 5 mM galactose concentration, washed in galactose free media and the compounds were added to a final concentration of 1 micromolar in a 2 mL reaction mixture. The culture was incubated at 30° C. for 3, 6, and 9 hour intervals. Images were obtained at each interval using an Olympus Infinity (BX51) fluorescence microscope at 100× magnification.

Data set [3] has as its system yeast strain 2AS (2 copies of AS-GFP gene). The class given is cell-based. The protocol:
as §3
Construction of the 1AS and 2AS strains has been described in detail previously.^55 Strains were grown in YPD supplemented with 30 μg/ml of all amino acids. The OD600 was adjusted to 0.05 in drop-out media (no uracil) at 30° C. Drugs were dissolved in methanol at 0.01 micromolar, 0.1 micromolar, 1 micromolar or 10 micromolar followed by addition of 100 micromolar or 5 mM galactose to a final volume of 10 mL.

For data set [4], the system named is preformed alpha-synuclein-GFP foci in yeast strain 2AS. Nature of the data set: Yeast recovery assay, fluorescence microscopy of preformed AS-GFP foci. It counts as cell-based. Conditions: compound added 6 hours after induction with 5 mM galactose. The protocol:
For Analysis of AS-GFP distribution, the 2AS strain was grown overnight in drop-out media. After normalization of culture density, galactose was administered to a final concentration of 5 mM. Fluorescence images were obtained at zero time, 3 hours, 6 hours, 9 hours and 12 hours. For the yeast recovery assay, yeast cells were obtained after 6 hours induction with 5 mM galactose concentration, washed in galactose free media and the compounds were added to a final concentration of 1 micromolar in a 2 mL reaction mixture. The culture was incubated at 30° C. for 3, 6, and 9 hour intervals. Images were obtained at each interval using an Olympus Infinity (BX51) fluorescence microscope at 100× magnification.

Data set [5] addresses T1, alpha-synuclein (Homo sapiens, UniProt P37840). Nature of the data set: Isothermal titration calorimetry (ITC) binding to alpha-synuclein. For Bind to N and C?: key: Y indicates yes; N indicates no. Conditions: for increase of Ka for a 10-fold decrease in ionic strength: 100 mM KCl versus 1.0M KCl; for # Binding sites: Table 2; for Bind to N and C?: binds to both N and C portions of alpha-synuclein; for Kd: read-out: Ka (converted). The protocol:
(§4) Nanopore analysis and isothermal titration calorimetry were performed as described previously.^21,54
In general terms: Isothermal titration calorimetry measures the heat released or taken up as one component is titrated into another.

Data set [6] addresses T1, alpha-synuclein. Nature of the data set: Nanopore analysis of alpha-synuclein (blockade current histograms). The class given is binding. Conditions: 1 micromolar alpha-synuclein, 20 micromolar compound; for nanopore profile (bumping peak / binding): FIG. 3. The protocol:
The bifunctional molecules were characterized by four different methods. […] If the compound causes a more compact conformation, then the alpha-synuclein can no longer translocate and it simply bumps into the pore giving rise to a very small change in the blockade current.^44-46
as §4

For data set [7], the target named is T1, alpha-synuclein. Conditions: 10 micromolar compound, shown previously; cited from earlier work.
Data set [8] concerns alpha-synuclein in substantia nigra. Nature of the data set: Immunohistochemistry of alpha-synuclein in substantia nigra of ASIA-treated rats. It counts as in vivo, rat. Particulars: ASIA + compound 3 mg/kg, 7 days of chronic injections. The protocol: as §1, §2
Tissue sections of substantia nigra from each of the treatment groups in the rat studies were evaluated for the presence of tyrosine hydroxylase, DNA (using the nuclear stain DAPI) and alpha-synuclein using immunohistochemistry. After behavioural tests were completed, the rats were euthanized, perfused and fixed in 4% paraformaldehyde. 40 μm brain slices were utilized for the immunohistochemistry procedure. Anti-Tyrosine Hydroxylase—a primary antibody for tyrosine positive neurons, host species rabbit, Millipore, Sigma Aldrich. DAPI—nuclear stain already pre-conjugated (NucBlue Fixed Cell Stain ReadyProbe reagent, Thermo Fisher Scientific). Anti-Alpha Synuclein—primary antibody for Anti-Synuclein, host species mouse, Abcam. Primary antibodies were diluted 1:500. Alexa Fluoro 488 Donkey anti-rabbit IgG—secondary antibody with fluorescent tag, Invitrogen, Thermo Fisher Scientific. Alexa Fluoro 594 Goat anti-mouse IgG—secondary antibody with fluorescent tag, Life Technologies, Thermo Fisher Scientific. Secondary antibodies were diluted 1:1000. Thioflavin S—stain for alpha-synuclein aggregates, Sigma Aldrich. Thioflavin S stock concentration at 5 mg/ml. Final dilution 1:100.
Tyrosine hydroxylase is a marker for dopaminergic neurons and is used to confirm that the desired cells are being imaged. DAPI (4′,6-diamidino-2-phenylindole) is a stain that binds to A-T rich regions in DNA, and is used to identify cell nuclei. Thioflavin S is used to stain aggregated proteins such as amyloid plaques. A higher level of staining with thioflavin S is indicative of a higher degree of protein aggregation.

Another data set has as its system WT yeast. Nature of the data set: Yeast growth curves (OD600), toxicity of drugs on WT yeast. It counts as cell-based. Details: effect on growth of WT yeast: dose or concentration left out as unconfirmed. Particulars: for effect on growth of WT yeast: no alpha-synuclein.
The mark [9] stands for this setting: 1 micromolar compound + 100 micromolar galactose.
Where [10] appears, read: ITC in 1.0M KCl, bifunctional molecules (or monomers) per alpha-synuclein molecule, best fit.
The mark [11] stands for this setting: 1 micromolar compound + 5 mM galactose.

For `NC1CCc2ccccc21` (racemic) [(R,S)-1-aminoindan, reference compound], in data set [1], the “immobility in forced swim test” value is listed as “partially reversed”, the “success in forced swim test” value is “some improvement” and the “vigor in forced swim test” value was “some improvement”. In data set [2], the “formation of foci delayed until (time after induction)” value (“formation of foci delayed until” for short) came to 9 h. Also, the “growth of 2AS yeast” value in data set [3] (setting [9]) is given as “rate of growth which is similar to that shown by the WT strain”.

With `Cn1c(=O)c2c(nc(CCCCCCN3CCCC3c3cccnc3)n2C)n(C)c1=O` (racemic) [Compound C8-6-N], the “effect on preformed large foci of alpha-synuclein” value in data set [4] is recorded as “can cause preformed large foci of alpha-synuclein to dissipate”. On alpha-synuclein [5], the “increase of Ka for a 10-fold decrease in ionic strength” value is “approximately 10 fold”; the “# Binding sites” value was found to be 1; the “Bind to N and C?” value is recorded as “Y”. At alpha-synuclein [5] (ITC in 100 mM KCl), the “# of Binding sites” value turned out to be 1 and the Ka worked out at 480000 M⁻¹. This compound also yielded a Ka at alpha-synuclein [5] (ITC in 1.0M KCl) of 43000 M⁻¹. Also, on alpha-synuclein [5] (setting [10]), the “# of Binding sites” value turned out to be 1. For the same compound, the Ka on alpha-synuclein [5] (Table 2, ITC) stood at 43000 M⁻¹. For the same compound, the “binding constants as measured by ITC, order of magnitude” value on alpha-synuclein [5] (summary statement) is reported as ~10^5 M^−1. Further, on alpha-synuclein [6], the “major peak, blockade current” value was −55 pA and the “nanopore profile (bumping peak / binding)” value is reported as “do not have a significant bumping peak”. The “AS-GFP foci / fluorescence pattern” value in [2] is listed as “similar”. For the same compound, the “growth of 2AS yeast” value in [3] (setting [11]) was “essentially normal”.

As to `Cn1c(=O)c2c(ncn2C)n(C)c1=O` [Caffeine, caffeine, reference compound], the “# of Binding sites” value on alpha-synuclein [5] (setting [10]) was 1. In addition, at alpha-synuclein [5], the “# Binding sites” value is listed as 1; the “Bind to N and C?” value is “Y”. For the same compound, the “formation of foci delayed until” value in data set [2] is 9 h. Also, on alpha-synuclein [7], the “major peak, blockade current, compound alone” value was “about −76 pA”.

As to `NC1Cc2ccccc2C1` [Compound 2-aminoindan, 2-aminoindan, reference compound], in data set [1], the “immobility in forced swim test” value is recorded as “significantly increases immobility”, the “success in forced swim test” value is “decreased success” and the “vigor in forced swim test” value is “decreased vigor”. Besides, the “level of alpha-synuclein staining in substantia nigra” value in data set [8] is recorded as “considerably increased”.

Turning to `Cn1c(=O)c2c(nc(CCCCCCc3nc4c(c(=O)n(C)c(=O)n4C)n3C)n2C)n(C)c1=O` [Compound C8-6-C8], the “toxicity on WT yeast” value with WT yeast (100 micromolar compound) was “toxic”. Moreover, the “increase of Ka for a 10-fold decrease in ionic strength” value on alpha-synuclein [5] is reported as “does not increase”. Moreover, the “# of Binding sites” value at alpha-synuclein [5] (ITC in 100 mM KCl) and at alpha-synuclein [5] (setting [10]) was 0.25 each time. In addition, the Ka at alpha-synuclein [5] (ITC in 100 mM KCl) was 1.8e+08 M⁻¹; at alpha-synuclein [5] (ITC in 1.0M KCl) it was 2e+08 M⁻¹ and 280000 M⁻¹; on alpha-synuclein [5] (Table 2, ITC), 2e+08 M⁻¹. In addition, the “# Binding sites” value on alpha-synuclein [5] amounted to 0.25. Besides, on alpha-synuclein [5], the “Bind to N and C?” value is given as “Y”. For the same compound, the “nanopore profile (bumping peak / binding)” value at alpha-synuclein [6] is on record as “predominantly bumping peaks”. Moreover, the “lag before growth rescue / reaching the growth plateau” value in data set [3] (setting [11]) is listed as “about 6 hours”.

In the case of `CN(C)C(=N)N=C(N)N` [Metformin, metformin, reference compound], the “# of Binding sites” value at alpha-synuclein [5] (setting [10]) was 1. In addition, the Kd on alpha-synuclein [5] (ITC in 1.0M KCl) was 109 nM; at alpha-synuclein [5] (Table 2, ITC), 111 nM. For the same compound, on alpha-synuclein [5], the “# Binding sites” value is listed as 3. At alpha-synuclein [5], the “Bind to N and C?” value is on record as “N”. Besides, in data set [2], the “formation of foci delayed until” value stood at 9 h. Also, the “growth of 2AS yeast” value in data set [3] (setting [9]) is “rate of growth which is similar to that shown by the WT strain”. In addition, the “major peak, blockade current, compound alone” value on alpha-synuclein [7] is given as “about −65 pA”.

As to `CC(N)Cc1ccccc1` (centres unmarked) [amphetamine], the “effect on growth of WT yeast” value with WT yeast is recorded as “no evidence of toxicity”. Further, in data set [2], the “time at which complete filling of the cell with AS-GFP occurs” value came to 6 h and the “AS-GFP foci / fluorescence pattern” value is on record as “larger foci appear at earlier times”. The “growth of 2AS yeast” value in [3] (setting [9]) was “significant reduction of growth”.

In the case of `C[n+]1ccc(-c2cc[n+](C)cc2)cc1` [paraquat, reference compound], the “effect on growth of WT yeast” value with WT yeast is given as “no evidence of toxicity”. In data set [3] (setting [9]), the “growth of 2AS yeast” value was “significant reduction of growth”.
